assay: recombinant UMI read abundance after kanamycin selection (control-corrected) (log10(CPM+1)); higher = more efficient recombination; extreme values may be limits of the assay; sequences stand for … in AGTGCAGAGAAAATCGGCCAGTTTTCTCTGCCTGCAGTCCGCATGCCGTGGGACCCCTTGGGTTCTAACCTGTTGCCTAGATTTATGCAGCGGACTGCCTTTCTCCCAAAGTGATAAACCGG…AGGTTGGTTTCACT; site = the 11-nt donor
In short: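 Values, expressed as log10(CPM+1), derive from recombinant UMI counts converted to CPM, averaged across replicates and scaled by control-derived factors. Plating was with IPTG (0.07 mM) plus kanamycin or unselected, two replicates each. The screen pooled donor and donor-binding-loop pairs for the IS621 bridge recombinase in Escherichia coli.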
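Note: IS621 bridge recombinase in Escherichia coli cells against a fixed T5 target plasmid.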

| Sequence | recombinant UMI read abundance (log10) |
| --- | --- |
| GACGATTCATGGACCGGTTTTCCCGGTAATCCGTATTTGTT (site GAAGATTCTAA) | 0.149 |
| GACGATTCATGGACCGGTTTTCCCGGTAATCCGTATTTGTT (site GACGATTCTAA) | 2.04 |
| GACGATTCATGGACCGGTTTTCCCGGTAATCCGTATTTGTT (site GAGGATTCTAA) | 0 |
| GACGATTCATGGACCGGTTTTCCCGGTAATCCGTATTTGTT (site GATGATTCTAA) | 0.263 |
| GACGGCCCATGGACCGGTTTTCCCGGTAATCCGTATTTGTT (site AACGGCCCTAA) | 0.00882 |
| GACGGCCCATGGACCGGTTTTCCCGGTAATCCGTATTTGTT (site CACGGCCCTAA) | 0.0467 |
| GACGGCCCATGGACCGGTTTTCCCGGTAATCCGTATTTGTT (site GACGGCCCTAA) | 0 |
| GACGGCCCATGGACCGGTTTTCCCGGTAATCCGTATTTGTT (site TACGGCCCTAA) | 0.00762 |
| GACTAACCATGGACCGGTTTTCCCGGTAATCCGTATTTGGT (site GACAAACCTAC) | 0.0462 |
| GACTAACCATGGACCGGTTTTCCCGGTAATCCGTATTTGGT (site GACCAACCTAC) | 0.00701 |
| GACTAACCATGGACCGGTTTTCCCGGTAATCCGTATTTGGT (site GACGAACCTAC) | 0 |
| GACTAACCATGGACCGGTTTTCCCGGTAATCCGTATTTGGT (site GACTAACCTAC) | 0 |
| GACTATTCATGGACCGGTTTTCCCGGTAATCCGTATTTGTA (site GACTATTCTTA) | 1.34 |
| GACTCCTCATGGACCGGTTTTCCCGGTAATCCGTATTTGAA (site GACTCCTCTTT) | 1.75 |
| GACTGATCATGGACCGGTTTTCCCGGTAATCCGTATTTGGC (site GACTGATCTGC) | 2.46 |
| GACTGGACATGGACCGGTTTTCCCGGTAATCCGTATTTGAC (site GAATGGACTGT) | 0 |
| GACTGGACATGGACCGGTTTTCCCGGTAATCCGTATTTGAC (site GACTGGACTGT) | 1.89 |
| GACTGGACATGGACCGGTTTTCCCGGTAATCCGTATTTGAC (site GAGTGGACTGT) | 0.438 |
| GACTGGACATGGACCGGTTTTCCCGGTAATCCGTATTTGAC (site GATTGGACTGT) | 0 |
| GACTGGCCATGGACCGGTTTTCCCGGTAATCCGTATTTGCA (site GAATGGCCTTG) | 0 |
| GACTGGCCATGGACCGGTTTTCCCGGTAATCCGTATTTGCA (site GACTGGCCTTG) | 0 |
| GACTGGCCATGGACCGGTTTTCCCGGTAATCCGTATTTGCA (site GAGTGGCCTTG) | 0 |
| GACTGGCCATGGACCGGTTTTCCCGGTAATCCGTATTTGCA (site GATTGGCCTTG) | 0.0169 |
| GAGAAAACATGGACCGGTTTTCCCGGTAATCCGTATTTGCT (site GAGAAAACTAG) | 1.16 |
| GAGAAAACATGGACCGGTTTTCCCGGTAATCCGTATTTGCT (site GCGAAAACTAG) | 0.0152 |

| Sequence | recombinant UMI read abundance (log10) |
| --- | --- |
| GAGAAAACATGGACCGGTTTTCCCGGTAATCCGTATTTGCT (site GGGAAAACTAG) | 0 |
| GAGAAAACATGGACCGGTTTTCCCGGTAATCCGTATTTGCT (site GTGAAAACTAG) | 0 |
| GAGAAATCATGGACCGGTTTTCCCGGTAATCCGTATTTGCG (site GAGAAATCTCG) | 0 |
| GAGAACCCATGGACCGGTTTTCCCGGTAATCCGTATTTGGA (site GAGAACCCTTC) | 0 |
| GAGAAGACATGGACCGGTTTTCCCGGTAATCCGTATTTGAA (site GAGAAGACTTT) | 1.82 |
| GAGAAGCCATGGACCGGTTTTCCCGGTAATCCGTATTTGTC (site GAGAAGCCTGA) | 0 |
| GAGAATACATGGACCGGTTTTCCCGGTAATCCGTATTTGCA (site AAGAATACTTG) | 0 |
| GAGAATACATGGACCGGTTTTCCCGGTAATCCGTATTTGCA (site CAGAATACTTG) | 0.0136 |
| GAGAATACATGGACCGGTTTTCCCGGTAATCCGTATTTGCA (site GAGAATACTTG) | 2.23 |
| GAGAATACATGGACCGGTTTTCCCGGTAATCCGTATTTGCA (site TAGAATACTTG) | 0.944 |
| GAGACGCCATGGACCGGTTTTCCCGGTAATCCGTATTTGCC (site GAGACGCCTGG) | 0 |
| GAGACGGCATGGACCGGTTTTCCCGGTAATCCGTATTTGAG (site GAGACGGCTCT) | 0.892 |
| GAGACTCCATGGACCGGTTTTCCCGGTAATCCGTATTTGTA (site GAGACTCCTTA) | 0.807 |
| GAGCACACATGGACCGGTTTTCCCGGTAATCCGTATTTGGA (site GAGCACACTTC) | 0.594 |
| GAGCCTTCATGGACCGGTTTTCCCGGTAATCCGTATTTGGT (site AAGCCTTCTAC) | 0.678 |
| GAGCCTTCATGGACCGGTTTTCCCGGTAATCCGTATTTGGT (site CAGCCTTCTAC) | 0.79 |
| GAGCCTTCATGGACCGGTTTTCCCGGTAATCCGTATTTGGT (site GAGCCTTCTAC) | 0.859 |
| GAGCCTTCATGGACCGGTTTTCCCGGTAATCCGTATTTGGT (site TAGCCTTCTAC) | 0.0029 |
| GAGCGAGCATGGACCGGTTTTCCCGGTAATCCGTATTTGTA (site GAGCGAGCTTA) | 2.57 |
| GAGCTCACATGGACCGGTTTTCCCGGTAATCCGTATTTGAC (site GAGCTCACTAT) | 1 |
| GAGCTCACATGGACCGGTTTTCCCGGTAATCCGTATTTGAC (site GAGCTCACTCT) | 0.476 |
| GAGCTCACATGGACCGGTTTTCCCGGTAATCCGTATTTGAC (site GAGCTCACTGT) | 2.53 |
| GAGCTCACATGGACCGGTTTTCCCGGTAATCCGTATTTGAC (site GAGCTCACTTT) | 0.00766 |
| GAGCTCACATGGACCGGTTTTCCCGGTAATCCGTATTTGTT (site GAGCTCACTAA) | 1.53 |
| GAGCTCACATGGACCGGTTTTCCCGGTAATCCGTATTTGTT (site GAGCTCACTAC) | 0.0125 |

| Sequence | recombinant UMI read abundance (log10) |
| --- | --- |
| GAGCTCACATGGACCGGTTTTCCCGGTAATCCGTATTTGTT (site GAGCTCACTAG) | 2.34 |
| GAGCTCACATGGACCGGTTTTCCCGGTAATCCGTATTTGTT (site GAGCTCACTAT) | 1.08 |
| GAGGATGCATGGACCGGTTTTCCCGGTAATCCGTATTTGTA (site GAGGATGCTTA) | 2.8 |
| GAGGCTACATGGACCGGTTTTCCCGGTAATCCGTATTTGTG (site GAGGCTACTCA) | 1.4 |
| GAGGGTACATGGACCGGTTTTCCCGGTAATCCGTATTTGGC (site GAGGGTACTGC) | 2.1 |
| GAGGTACCATGGACCGGTTTTCCCGGTAATCCGTATTTGTA (site GAGGTACCTTA) | 0.00435 |
| GAGGTATCATGGACCGGTTTTCCCGGTAATCCGTATTTGCT (site GAGGTATCTAG) | 2.57 |
| GAGGTCACATGGACCGGTTTTCCCGGTAATCCGTATTTGAT (site GAGATCACTAT) | 1.36 |
| GAGGTCACATGGACCGGTTTTCCCGGTAATCCGTATTTGAT (site GAGCTCACTAT) | 0.00889 |
| GAGGTCACATGGACCGGTTTTCCCGGTAATCCGTATTTGAT (site GAGGTCACTAT) | 1.35 |
| GAGGTCACATGGACCGGTTTTCCCGGTAATCCGTATTTGAT (site GAGTTCACTAT) | 0 |
| GAGTATCCATGGACCGGTTTTCCCGGTAATCCGTATTTGCT (site GAATATCCTAG) | 0 |
| GAGTATCCATGGACCGGTTTTCCCGGTAATCCGTATTTGCT (site GACTATCCTAG) | 0.506 |
| GAGTATCCATGGACCGGTTTTCCCGGTAATCCGTATTTGCT (site GAGTATCCTAG) | 0.75 |
| GAGTATCCATGGACCGGTTTTCCCGGTAATCCGTATTTGCT (site GATTATCCTAG) | 0 |
| GAGTCCTCATGGACCGGTTTTCCCGGTAATCCGTATTTGCC (site GAGTCCTCTGG) | 0 |
| GAGTCGACATGGACCGGTTTTCCCGGTAATCCGTATTTGGG (site AAGTCGACTCC) | 0.257 |
| GAGTCGACATGGACCGGTTTTCCCGGTAATCCGTATTTGGG (site CAGTCGACTCC) | 0.0177 |
| GAGTCGACATGGACCGGTTTTCCCGGTAATCCGTATTTGGG (site GAGTCGACTCC) | 0.044 |
| GAGTCGACATGGACCGGTTTTCCCGGTAATCCGTATTTGGG (site TAGTCGACTCC) | 0.0071 |
| GAGTGCCCATGGACCGGTTTTCCCGGTAATCCGTATTTGCC (site GAGTGCCCTGG) | 0 |
| GAGTTTCCATGGACCGGTTTTCCCGGTAATCCGTATTTGCG (site GAGTTTCCTCG) | 0.572 |
| GATAATCCATGGACCGGTTTTCCCGGTAATCCGTATTTGCT (site GATAATCCTAG) | 0 |
| GATAATCCATGGACCGGTTTTCCCGGTAATCCGTATTTGCT (site GATCATCCTAG) | 0 |
| GATAATCCATGGACCGGTTTTCCCGGTAATCCGTATTTGCT (site GATGATCCTAG) | 0 |
